# Laboratory results: patent US20230085307A1, “PYRIDAZINONE COMPOUND AND HERBICIDE” (NISSAN CHEMICAL CORPORATION, priority 2019, published 2023)
# Assays:
# oval-leafed pondweed = assay: Test Example 1: herbicidal activity, application before weed generation under submerged conditions (Table 16, symbol C); assay type: in vivo, oval-leafed pondweed (Monochoria vaginalis); details: amount of applied herbicide 320 g/ha
# Procedure, shortened: (§1)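 Submerged Wagner pots (alluvial soil, 4 cm water) sown with weed seeds and planted with 2.5-leaf rice seedlings; emulsifiable concentrate diluted in water applied to water surface on sowing day. Held in greenhouse at 25-30 °C; injury scored 0-5 by herbicidal rate after three weeks.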
# late watergrass = assay: Test Example 1: herbicidal activity, application before weed generation under submerged conditions (Table 16, symbol A); assay type: in vivo, late watergrass (Echinochloa oryzicola); details: amount of applied herbicide 320 g/ha
# Procedure, shortened: as §1
# redroot pigweed = assay: Test Example 5: herbicidal effect by foliage application, plastic box (Table 20, symbol N); assay type: in vivo, redroot pigweed (Amaranthus retroflexus); details: foliage application after 14-day growth, evaluated three weeks after application; for Herbicidal effect by foliage application, N: redroot pigweed: amount of applied herbicide 320 g/ha
# Procedure, shortened: (§2)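 Plants were sown into sterilized diluvial soil under about 1.5 cm cover and kept in a greenhouse at 25° C. to 30° C. Fourteen days on, foliage received an even spray of the diluted emulsion. Herbicidal or crop effect was judged three weeks afterwards.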
# green foxtail = assay: Test Example 5: herbicidal effect by foliage application, plastic box (Table 20, symbol G); assay type: in vivo, green foxtail (Setaria viridis); details: foliage application after 14-day growth, evaluated three weeks after application; for Herbicidal effect by foliage application, G: green foxtail: amount of applied herbicide 320 g/ha
# Procedure, shortened: as §2
# Chinese sprangletop = assay: Test Example 3: herbicidal effect by foliage application, Wagner pot (Table 18, symbol D); assay type: in vivo, chinese sprangletop (Leptochloa chinensis); details: 320 g/ha
# Procedure, shortened: (§3)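 Plants were sown in alluvial soil held under 0.1–0.5 cm standing water and grown 14 days in a greenhouse at 25–30 °C. An emulsifiable formulation, water-diluted to the set dose, was then sprayed onto the foliage, and effects were scored three weeks later using previously defined criteria.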
# barnyard grass [1] = assay: Test Example 3: herbicidal effect by foliage application, Wagner pot (Table 18, symbol H); assay type: in vivo, barnyard grass (Echinochloa crus-galli); details: 320 g/ha
# Procedure, shortened: as §3
# Italian ryegrass = assay: Test Example 5: herbicidal effect by foliage application, plastic box (Table 20, symbol K); assay type: in vivo, Italian ryegrass (Lolium multiflorum); details: foliage application after 14-day growth, evaluated three weeks after application; for Herbicidal effect by foliage application, K: Italian ryegrass: amount of applied herbicide 320 g/ha
# Procedure, shortened: as §2
# blackgrass = assay: Test Example 5: herbicidal effect by foliage application, plastic box (Table 20, symbol J); assay type: in vivo, blackgrass (Alopecurus myosuroides); details: foliage application after 14-day growth, evaluated three weeks after application; for Herbicidal effect by foliage application, J: blackgrass: amount of applied herbicide 320 g/ha
# Procedure, shortened: as §2
# chickweed = assay: Test Example 5: herbicidal effect by foliage application, plastic box (Table 20, symbol P); assay type: in vivo, common chickweed (Stellaria media); details: foliage application after 14-day growth, evaluated three weeks after application; for Herbicidal effect by foliage application, P: chickweed: amount of applied herbicide 320 g/ha
# Procedure, shortened: as §2
# wild oat = assay: Test Example 5: herbicidal effect by foliage application, plastic box (Table 20, symbol I); assay type: in vivo, wild oat (Avena fatua); details: foliage application after 14-day growth, evaluated three weeks after application; for Herbicidal effect by foliage application, I: wild oat: amount of applied herbicide 320 g/ha
# Procedure, shortened: as §2
# windgrass = assay: Test Example 5: herbicidal effect by foliage application, plastic box (Table 20, symbol L); assay type: in vivo, windgrass (Apera spica-venti); details: foliage application after 14-day growth, evaluated three weeks after application; for Herbicidal effect by foliage application, L: windgrass: amount of applied herbicide 320 g/ha
# Procedure, shortened: as §2
# southern crabgrass = assay: Test Example 5: herbicidal effect by foliage application, plastic box (Table 20, symbol F); assay type: in vivo, southern crabgrass (Digitaria ciliaris); details: foliage application after 14-day growth, evaluated three weeks after application; for Herbicidal effect by foliage application, F: southern crabgrass: amount of applied herbicide 320 g/ha
# Procedure, shortened: as §2
# Japanese bulrush = assay: Test Example 1: herbicidal activity, application before weed generation under submerged conditions (Table 16, symbol B); assay type: in vivo, Japanese bulrush (Schoenoplectus juncoides); details: amount of applied herbicide 320 g/ha
# Procedure, shortened: as §1
# persian speedwell = assay: Test Example 5: herbicidal effect by foliage application, plastic box (Table 20, symbol R); assay type: in vivo, Persian speedwell (Veronica persica); details: foliage application after 14-day growth, evaluated three weeks after application; for Herbicidal effect by foliage application, R: persian speedwell: amount of applied herbicide 320 g/ha
# Procedure, shortened: as §2
# barnyard grass [2] = assay: Test Example 5: herbicidal effect by foliage application, plastic box (Table 20, symbol H); assay type: in vivo, barnyard grass (Echinochloa crus-galli); details: foliage application after 14-day growth, evaluated three weeks after application; for Herbicidal effect by foliage application, H: barnyard grass: amount of applied herbicide 320 g/ha
# Procedure, shortened: as §2
# velvetleaf = assay: Test Example 5: herbicidal effect by foliage application, plastic box (Table 20, symbol M); assay type: in vivo, velvetleaf (Abutilon theophrasti); details: foliage application after 14-day growth, evaluated three weeks after application; for Herbicidal effect by foliage application, M: velvetleaf: amount of applied herbicide 320 g/ha
# Procedure, shortened: as §2
# rice flat sedge = assay: Test Example 3: herbicidal effect by foliage application, Wagner pot (Table 18, symbol E); assay type: in vivo, rice flat sedge (Cyperus iria); details: 320 g/ha
# Procedure, shortened: as §3
# lambsquarters = assay: Test Example 5: herbicidal effect by foliage application, plastic box (Table 20, symbol O); assay type: in vivo, lambsquarters (Chenopodium album); details: foliage application after 14-day growth, evaluated three weeks after application; for Herbicidal effect by foliage application, O: lambsquarters: amount of applied herbicide 320 g/ha
# Procedure, shortened: as §2
SMILES,"Herbicidal effect, C: oval-leafed pondweed (oval-leafed pondweed)","Herbicidal effect, A: late watergrass (late watergrass)",herbicidal effect on Chinese sprangletop (D) (Chinese sprangletop),herbicidal effect on barnyard grass (H) (barnyard grass [1]),"Herbicidal effect, B: Japanese bulrush (Japanese bulrush)",herbicidal effect on rice flat sedge (E) (rice flat sedge),"Herbicidal effect by foliage application, N: redroot pigweed (redroot pigweed)","Herbicidal effect by foliage application, G: green foxtail (green foxtail)","Herbicidal effect by foliage application, K: Italian ryegrass (Italian ryegrass)","Herbicidal effect by foliage application, J: blackgrass (blackgrass)","Herbicidal effect by foliage application, P: chickweed (chickweed)","Herbicidal effect by foliage application, I: wild oat (wild oat)","Herbicidal effect by foliage application, L: windgrass (windgrass)","Herbicidal effect by foliage application, F: southern crabgrass (southern crabgrass)","Herbicidal effect by foliage application, R: persian speedwell (persian speedwell)","Herbicidal effect by foliage application, H: barnyard grass (barnyard grass [2])","Herbicidal effect by foliage application, M: velvetleaf (velvetleaf)","Herbicidal effect by foliage application, O: lambsquarters (lambsquarters)",further results
CCCC(=O)Oc1c(C)nn(C)c(=O)c1-c1c(-c2cccc(OC)c2)sc2c(Cl)cccc12 [4-065],1 (Herbicidal rate of 5% or more and less than 20%),4 (Herbicidal rate of 70% or more and less than 90%),3 (Herbicidal rate of 40% or more and less than 70%),4 (Herbicidal rate of 70% or more and less than 90%),0 (Herbicidal rate of 5% or less (almost no effect)),3 (Herbicidal rate of 40% or more and less than 70%),–,–,–,–,–,–,–,–,–,–,–,–,herbicidal effect on N: redroot pigweed (evaluation grade 0-5) (redroot pigweed; 320 g/ha): 5 (Herbicidal rate of 90% or more (almost completely withered)); herbicidal effect on G: green foxtail (evaluation grade 0-5) (green foxtail; 320 g/ha): 0 (Herbicidal rate of 5% or less (almost no effect)); herbicidal effect on K: Italian ryegrass (evaluation grade 0-5) (Italian ryegrass; 320 g/ha): 0 (Herbicidal rate of 5% or less (almost no effect)); herbicidal effect on J: blackgrass (evaluation grade 0-5) (blackgrass; 320 g/ha): 0 (Herbicidal rate of 5% or less (almost no effect)); herbicidal effect on P: chickweed (evaluation grade 0-5) (chickweed; 320 g/ha): 3 (Herbicidal rate of 40% or more and less than 70%); herbicidal effect on I: wild oat (evaluation grade 0-5) (wild oat; 320 g/ha): 0 (Herbicidal rate of 5% or less (almost no effect)); herbicidal effect on L: windgrass (evaluation grade 0-5) (windgrass; 320 g/ha): 0 (Herbicidal rate of 5% or less (almost no effect)); herbicidal effect on F: southern crabgrass (evaluation grade 0-5) (southern crabgrass; 320 g/ha): 0 (Herbicidal rate of 5% or less (almost no effect)); herbicidal effect on R: persian speedwell (evaluation grade 0-5) (persian speedwell; 320 g/ha): 3 (Herbicidal rate of 40% or more and less than 70%); herbicidal effect on H: barnyard grass (evaluation grade 0-5) (barnyard grass [2]; 320 g/ha): 0 (Herbicidal rate of 5% or less (almost no effect)); herbicidal effect on M: velvetleaf (evaluation grade 0-5) (velvetleaf; 320 g/ha): 1 (Herbicidal rate of 5% or more and less than 20%); herbicidal effect on O: lambsquarters (evaluation grade 0-5) (lambsquarters; 320 g/ha): 2 (Herbicidal rate of 20% or more and less than 40%)
Cc1nn(C)c(=O)c(-c2c(-c3ccccc3C(F)(F)F)sc3c(Cl)cccc23)c1O [4-070],1 (Herbicidal rate of 5% or more and less than 20%),3 (Herbicidal rate of 40% or more and less than 70%),4 (Herbicidal rate of 70% or more and less than 90%),5 (Herbicidal rate of 90% or more (almost completely withered)),2 (Herbicidal rate of 20% or more and less than 40%),4 (Herbicidal rate of 70% or more and less than 90%),3 (Herbicidal rate of 40% or more and less than 70%),0 (Herbicidal rate of 5% or less (almost no effect)),3 (Herbicidal rate of 40% or more and less than 70%),0 (Herbicidal rate of 5% or less (almost no effect)),5 (Herbicidal rate of 90% or more (almost completely withered)),0 (Herbicidal rate of 5% or less (almost no effect)),0 (Herbicidal rate of 5% or less (almost no effect)),0 (Herbicidal rate of 5% or less (almost no effect)),5 (Herbicidal rate of 90% or more (almost completely withered)),0 (Herbicidal rate of 5% or less (almost no effect)),0 (Herbicidal rate of 5% or less (almost no effect)),3 (Herbicidal rate of 40% or more and less than 70%),–
COc1ccccc1-c1sc2cc(Cl)c(Cl)cc2c1-c1c(O)c(C)nn(C)c1=O [5-041],5 (Herbicidal rate of 90% or more (almost completely withered)),0 (Herbicidal rate of 5% or less (almost no effect)),3 (Herbicidal rate of 40% or more and less than 70%),4 (Herbicidal rate of 70% or more and less than 90%),5 (Herbicidal rate of 90% or more (almost completely withered)),3 (Herbicidal rate of 40% or more and less than 70%),5 (Herbicidal rate of 90% or more (almost completely withered)),4 (Herbicidal rate of 70% or more and less than 90%),0 (Herbicidal rate of 5% or less (almost no effect)),0 (Herbicidal rate of 5% or less (almost no effect)),5 (Herbicidal rate of 90% or more (almost completely withered)),0 (Herbicidal rate of 5% or less (almost no effect)),0 (Herbicidal rate of 5% or less (almost no effect)),3 (Herbicidal rate of 40% or more and less than 70%),3 (Herbicidal rate of 40% or more and less than 70%),3 (Herbicidal rate of 40% or more and less than 70%),4 (Herbicidal rate of 70% or more and less than 90%),3 (Herbicidal rate of 40% or more and less than 70%),–
CCOc1ccccc1-c1sc2cc(Cl)c(Cl)cc2c1-c1c(O)c(C)nn(C)c1=O [5-045],0 (Herbicidal rate of 5% or less (almost no effect)),0 (Herbicidal rate of 5% or less (almost no effect)),3 (Herbicidal rate of 40% or more and less than 70%),4 (Herbicidal rate of 70% or more and less than 90%),3 (Herbicidal rate of 40% or more and less than 70%),3 (Herbicidal rate of 40% or more and less than 70%),3 (Herbicidal rate of 40% or more and less than 70%),3 (Herbicidal rate of 40% or more and less than 70%),0 (Herbicidal rate of 5% or less (almost no effect)),0 (Herbicidal rate of 5% or less (almost no effect)),5 (Herbicidal rate of 90% or more (almost completely withered)),0 (Herbicidal rate of 5% or less (almost no effect)),0 (Herbicidal rate of 5% or less (almost no effect)),2 (Herbicidal rate of 20% or more and less than 40%),5 (Herbicidal rate of 90% or more (almost completely withered)),3 (Herbicidal rate of 40% or more and less than 70%),4 (Herbicidal rate of 70% or more and less than 90%),1 (Herbicidal rate of 5% or more and less than 20%),–
